Where “and” joins values, the source holds several entries; their conditions need not be identical. Identical values can stand only once.
Test: xn = mol fraction of the nth substance listed
Details: Fluid (supercritical or subcritical phases), Spherical resonator

N#N [nitrogen] + C
Details	speed of sound
170 K, 124.7 kPa, x1 = 0.5422	291.53 m/s
170 K, 150 kPa, x1 = 0.5422	291.29 m/s
170 K, 174.8 kPa, x1 = 0.5422	291.06 m/s
170 K, 199.8 kPa, x1 = 0.5422	290.83 m/s
170 K, 224.8 kPa, x1 = 0.5422	290.59 m/s
170 K, 249.8 kPa, x1 = 0.5422	290.36 m/s
170 K, 279.7 kPa, x1 = 0.5422	290.07 m/s
170 K, 280 kPa, x1 = 0.5422	290.07 m/s
170 K, 409.7 kPa, x1 = 0.5422	288.85 m/s
170 K, 409.8 kPa, x1 = 0.5422	288.85 m/s
170 K, 680.3 kPa, x1 = 0.5422	286.28 m/s
170 K, 680.4 kPa, x1 = 0.5422	286.28 m/s
170 K, 1293 kPa, x1 = 0.5422	280.36 m/s
170 K, 2374 kPa, x1 = 0.5422	269.67 m/s and 269.68 m/s
170 K, 3248 kPa, x1 = 0.5422	261.01 m/s
170 K, 3249 kPa, x1 = 0.5422	260.99 m/s
170 K, 3953 kPa, x1 = 0.5422	254.33 m/s
170 K, 3954 kPa, x1 = 0.5422	254.32 m/s
170 K, 4555 kPa, x1 = 0.5422	249.39 m/s
170 K, 4572 kPa, x1 = 0.5422	249.51 m/s
190 K, 311.9 kPa, x1 = 0.5422	307.35 m/s
190 K, 457.6 kPa, x1 = 0.5422	306.42 m/s
190 K, 762.5 kPa, x1 = 0.5422	304.49 m/s
190 K, 1464 kPa, x1 = 0.5422	300.13 m/s
190 K, 2748 kPa, x1 = 0.5422	292.7 m/s
190 K, 3852 kPa, x1 = 0.5422	287.32 m/s
190 K, 4810 kPa, x1 = 0.5422	284.03 m/s
190 K, 5716 kPa, x1 = 0.5422	282.84 m/s
215 K, 351.4 kPa, x1 = 0.5422	327.5 m/s
215 K, 516.2 kPa, x1 = 0.5422	326.87 m/s
215 K, 863.4 kPa, x1 = 0.5422	325.57 m/s
215 K, 1672 kPa, x1 = 0.5422	322.77 m/s
215 K, 3199 kPa, x1 = 0.5422	318.49 m/s
215 K, 4573 kPa, x1 = 0.5422	316.24 m/s
215 K, 5826 kPa, x1 = 0.5422	316.02 m/s
215 K, 7070 kPa, x1 = 0.5422	317.96 m/s
220 K, 99.6 kPa, x1 = 0.2	363.86 m/s
220 K, 101.5 kPa, x1 = 0.2	363.89 m/s
220 K, 200 kPa, x1 = 0.1	374.49 m/s
220 K, 249.1 kPa, x1 = 0.2	362.81 m/s
220 K, 249.2 kPa, x1 = 0.2	362.81 m/s
220 K, 249.5 kPa, x1 = 0.2	362.85 m/s
220 K, 498.6 kPa, x1 = 0.2	361.06 m/s
220 K, 498.8 kPa, x1 = 0.2	361.05 m/s
220 K, 499.1 kPa, x1 = 0.2	361.09 m/s
220 K, 501.4 kPa, x1 = 0.1	371.96 m/s
220 K, 998.6 kPa, x1 = 0.2	357.56 m/s
220 K, 999.3 kPa, x1 = 0.2	357.56 m/s
220 K, 1001 kPa, x1 = 0.1	367.77 m/s
220 K, 1003 kPa, x1 = 0.2	357.57 m/s
220 K, 2006 kPa, x1 = 0.2	350.72 m/s
220 K, 2007 kPa, x1 = 0.1	359.38 m/s
220 K, 2008 kPa, x1 = 0.2	350.73 m/s
220 K, 3014 kPa, x1 = 0.2	344.27 m/s
220 K, 3016 kPa, x1 = 0.2	344.28 m/s
220 K, 3018 kPa, x1 = 0.1	351.21 m/s
220 K, 4002 kPa, x1 = 0.2	338.63 m/s
220 K, 4034 kPa, x1 = 0.2	338.48 m/s
220 K, 4040 kPa, x1 = 0.1	343.53 m/s
220 K, 5057 kPa, x1 = 0.2	333.84 m/s
220 K, 6079 kPa, x1 = 0.2	331.09 m/s
220 K, 6099 kPa, x1 = 0.1	332.63 m/s
220 K, 7000 kPa, x1 = 0.2	331.07 m/s
220 K, 7981 kPa, x1 = 0.2	334.7 m/s
220 K, 8215 kPa, x1 = 0.1	339.23 m/s
220 K, 9000 kPa, x1 = 0.2	343.57 m/s
220 K, 9974 kPa, x1 = 0.2	357.39 m/s
220 K, 10421 kPa, x1 = 0.1	383.6 m/s
220 K, 10996 kPa, x1 = 0.2	376.87 m/s
220 K, 12068 kPa, x1 = 0.2	401.11 m/s
220 K, 12996 kPa, x1 = 0.2	423.71 m/s
220 K, 14014 kPa, x1 = 0.2	449.03 m/s
220 K, 14274 kPa, x1 = 0.1	498.94 m/s
220 K, 14891 kPa, x1 = 0.2	470.66 m/s
220 K, 16024 kPa, x1 = 0.2	497.89 m/s
220 K, 16645 kPa, x1 = 0.1	562.65 m/s
220 K, 17031 kPa, x1 = 0.2	521.17 m/s
220 K, 18043 kPa, x1 = 0.1	596.39 m/s
220 K, 18088 kPa, x1 = 0.2	544.6 m/s
220 K, 19087 kPa, x1 = 0.2	565.86 m/s
220 K, 19556 kPa, x1 = 0.2	575.49 m/s
220 K, 19985 kPa, x1 = 0.1	639.27 m/s
220 K, 25037 kPa, x1 = 0.2	675.84 m/s
220 K, 30201 kPa, x1 = 0.2	753.84 m/s
250 K, 99.6 kPa, x1 = 0.2	387.32 m/s
250 K, 105 kPa, x1 = 0.2	387.33 m/s
250 K, 199.6 kPa, x1 = 0.1	398.92 m/s
250 K, 249.1 kPa, x1 = 0.2	386.69 m/s
250 K, 249.5 kPa, x1 = 0.2	386.7 m/s
250 K, 405.3 kPa, x1 = 0.5422	353.38 m/s
250 K, 498.3 kPa, x1 = 0.2	385.62 m/s
250 K, 499.1 kPa, x1 = 0.1	397.32 m/s
250 K, 499.1 kPa, x1 = 0.2	385.63 m/s
250 K, 596.4 kPa, x1 = 0.5422	353.08 m/s
250 K, 998.2 kPa, x1 = 0.2	383.53 m/s
250 K, 998.9 kPa, x1 = 0.2	383.54 m/s
250 K, 999.8 kPa, x1 = 0.1	394.71 m/s
250 K, 1001 kPa, x1 = 0.5422	352.48 m/s
250 K, 1955 kPa, x1 = 0.5422	351.35 m/s
250 K, 2002 kPa, x1 = 0.2	379.64 m/s
250 K, 2004 kPa, x1 = 0.1	389.75 m/s
250 K, 2005 kPa, x1 = 0.2	379.64 m/s
250 K, 2974 kPa, x1 = 0.1	385.4 m/s
250 K, 3002 kPa, x1 = 0.2	376.26 m/s
250 K, 3014 kPa, x1 = 0.2	376.24 m/s
250 K, 3805 kPa, x1 = 0.5422	350.46 m/s
250 K, 4021 kPa, x1 = 0.2	373.48 m/s
250 K, 4026 kPa, x1 = 0.2	373.48 m/s
250 K, 4027 kPa, x1 = 0.1	381.43 m/s
250 K, 4989 kPa, x1 = 0.2	371.62 m/s
250 K, 5030 kPa, x1 = 0.2	371.55 m/s
250 K, 5041 kPa, x1 = 0.1	378.44 m/s
250 K, 5536 kPa, x1 = 0.5422	351.48 m/s
250 K, 5903 kPa, x1 = 0.2	370.69 m/s
250 K, 6000 kPa, x1 = 0.2	370.66 m/s
250 K, 6066 kPa, x1 = 0.1	376.58 m/s
250 K, 7002 kPa, x1 = 0.2	370.93 m/s
250 K, 7089 kPa, x1 = 0.1	376.21 m/s
250 K, 7176 kPa, x1 = 0.5422	354.43 m/s
250 K, 8018 kPa, x1 = 0.2	372.66 m/s
250 K, 8117 kPa, x1 = 0.1	377.7 m/s
250 K, 8849 kPa, x1 = 0.5422	359.54 m/s
250 K, 8859 kPa, x1 = 0.5422	359.5 m/s
250 K, 9001 kPa, x1 = 0.2	375.95 m/s
250 K, 9155 kPa, x1 = 0.1	381.49 m/s
250 K, 10175 kPa, x1 = 0.2	382.17 m/s
250 K, 10204 kPa, x1 = 0.1	387.94 m/s
250 K, 11195 kPa, x1 = 0.2	389.7 m/s
250 K, 11238 kPa, x1 = 0.1	397.06 m/s
250 K, 12284 kPa, x1 = 0.1	408.99 m/s
250 K, 13078 kPa, x1 = 0.2	408.65 m/s
250 K, 13320 kPa, x1 = 0.1	423.21 m/s
250 K, 14003 kPa, x1 = 0.2	420.05 m/s
250 K, 14166 kPa, x1 = 0.1	436.28 m/s
250 K, 15044 kPa, x1 = 0.1	450.92 m/s
250 K, 15316 kPa, x1 = 0.2	438.11 m/s
250 K, 16059 kPa, x1 = 0.2	449.07 m/s
250 K, 16075 kPa, x1 = 0.1	469.1 m/s
250 K, 17054 kPa, x1 = 0.2	464.35 m/s
250 K, 17093 kPa, x1 = 0.1	487.71 m/s
250 K, 18084 kPa, x1 = 0.1	506.09 m/s
250 K, 18089 kPa, x1 = 0.2	480.72 m/s
250 K, 18990 kPa, x1 = 0.1	522.94 m/s
250 K, 19031 kPa, x1 = 0.2	495.86 m/s
250 K, 19850 kPa, x1 = 0.2	509.09 m/s
250 K, 19992 kPa, x1 = 0.1	541.47 m/s
250 K, 25516 kPa, x1 = 0.1	637.9 m/s

From the NIST ThermoML archive (doi:10.1016/j.jct.2005.10.006)
